Earlier results on 1 compound are cited in patent publication US12133854B2 (SLAYBACK PHARMA LLC, priority 2021, dated 2024).

Molecules are shown by their SMILES. ≈ marks a conversion by molar mass, not a printed value. Entries after “also recorded” stand apart in the source; their conditions may differ. Like-named read-outs stand apart in the source and are kept apart here.

The Solubility is the dissolved amount per volume that the medium holds. In the case of `CC#C[C@]1(O)CC[C@H]2[C@@H]3CCC4=CC(=O)CCC4=C3[C@@H](c3ccc(N(C)C)cc3)C[C@@]21C` [Mifepristone, 11β-(4-dimethylaminophenyl)-17β-hydroxy-17α-(1-propynyl)-estra-4,9-dien-3-one], the “Solubility in methanol, chloroform and acetone” value is reported as “very soluble”; the Solubility in water entry is given as “practically insoluble; also recorded: low aqueous solubility”. Further, under “above pH 2.5”, the Solubility result is given as “less than 1 mg/mL”. For the same compound, the Solubility (in acid, pH 1.5) is listed as roughly 25 mg/mL (≈ 58.2 mM).
